Experimental data taken from patent publication US20250092086A1, “CELASTROL SALTS, CRYSTALLINE FORMS, AND USES THEREOF” (ERX Pharmaceuticals Inc., priority 2022, published 2025).
In brackets after ≈: the same amount, converted by molar mass. Entries after “also recorded” stand apart in the source; their conditions may differ. Where two headings read alike, the source gives them in different places.

How the values were obtained:
[1] = XRPD under temperature and relative humidity; format: physicochemical; details: for XRPD under temperature: impact / new crystalline phase: 25 to 100° C., RH set at 30%; for XRPD under relative humidity: impact / new crystalline phase: RH 10 to 80-90% at 40° C.; for Physical stability under the conditions tested (temperature and RH): XRPD, 25-100° C. and 10-90% RH at 40° C.
Protocol: Method 1: influence of temperature at ambient RH. RH was set at 30% in order to simulate a RH near from the ambient RH, and the temperature studied were 25-[…]-100° C.
Method 2: influence on RH at 40° C. The RH studied was at 10-30-80%.
These experiments studied the influence of temperature at ambient RH. RH was wet at 30% in order to simulate a RH near from the ambient RH, and the temperatures studied were 25-50-100° C.
These experiments studied the influence on RH at 40° C. The RH studied were 10-30-88%.
Using Method 1, the influence of temperature at ambient RH was studied. RH was set at 30% in order to simulate a RH near from the ambient RH, and the temperatures studied were 25-50-100° C. FIG. 24 provides the XRPD pattern representing the influence of temperature on Compound 1 Form I.
Using Method 2, the influence on RH at 40° C. was studied. The RH studied were 10-30-90%.
Using Method 1, the influence of temperature at ambient RH was studied. RH was set at 30% in order to simulate a RH near from the ambient RH. Temperature studied: 25-50-100° C.
Using Method 2, the influence on RH at 40° C. was studied at 10-30-90%.

[2] = Solubility study of Compound I Form I in various solvents and temperatures; format: physicochemical
Protocol: The solubility of Compound 1 Form I was assessed in order to identify potential crystallization media. Compound 1 Form I was found very soluble in dichoromethane even at low temperature (10° C.).

[3] = Hygroscopicity (DVS), water sorption/desorption at 37° C.; format: physicochemical; details: for Hysteresis observed with the final mass at 50% RH / Water uptake, water sorption/desorption isotherms / Mass decrease as the RH was lowered to 0% / Mass increase as the RH was increased to 95% / Hysteresis with the final mass at 50% RH: DVS, 37° C.; for DVS (hygroscopicity): water sorption/desorption isotherms at 37° C., 0-95% RH
Protocol: The hygroscopicity experiments were carried out with a DVS Intrinsic from S.M.S. This technique is designed to accurately measure a sample's change in mass as it sorbs precisely controlled concentrations of water vapors in an air carrier gas. The method used for DVS experiments (at 37° C.) is summarized below. • Equilibrating 10 min at 50% RH • Decreasing to 0% RH in 60 min • Equilibrating 10 min at 0% RH • Increasing to 95% RH in 280 min • Equilibrating 10 min at 95% RH • Decreasing to 50% RH in 100 min • Equilibrating 20 min at 50% RH
(§1) The hygroscopic experiments were carried out with a DVS Intrinsic from S.M.S. This technique is designed to accurately measure a sample's change in mass as it sorbs precisely controlled concentrations of water vapors in an air carrier gas. All the methods used for DVS experiments are summarized below. It should be noticed that the temperature and relative humidity (RH) are pre-set according to the initial temperature and RH.
• Equilibrating 120 min at 50% RH • Decreasing to 0% RH in 60 min • Equilibrating 150 min at 0% RH • Increasing to 95% RH in 200 min • Equilibrating 360 min at 95% RH • Decreasing to 50% RH in 100 min • Equilibrating 150 min at 50% RH
as §1, with “hygroscopicity” for “hygroscopic”, “below, and it” for “below. It”
as §1, with “hygroscopicity” for “hygroscopic”

[4] = Solubility in water at 37° C.; format: physicochemical
Text: This compound can be considered as very slightly soluble (<1 g/L).

[5] = counter-ion, cited from earlier work; for pKa (B): basic function

SMILES: CC1=C(O)C(=O)C=C2C1=CC=C1[C@@]2(C)CC[C@@]2(C)[C@@H]3C[C@](C)(C(=O)O)CC[C@]3(C)CC[C@]12C [Compound 1 Form I, 3-hydroxy-9β,13α-dimethyl-2-oxo-24,25,26-trinoroleana-1(10),3,5,7-tetraen-29-oic acid]
- XRPD under temperature: impact / new crystalline phase [1]: No impact
- XRPD under temperature: impact / new crystalline phase ([1]; listed as Compound I Form I): no new crystalline phase until 100 °C
- XRPD under temperature: impact / new crystalline phase ([1]; listed as FI): =>No new crystalline
- XRPD under relative humidity: impact / new crystalline phase [1]: No impact
- XRPD under relative humidity: impact / new crystalline phase ([1]; listed as Compound I Form I): no new crystalline phase from 10 to 90% RH
- XRPD under relative humidity: impact / new crystalline phase ([1]; listed as FI): =>No new crystalline
- Physical stability under the conditions tested (temperature and RH) [1]: good stability
- solubility ([2]; CH2Cl2/EtOH 20/80, organic solvent or mixture, CH2Cl2-2/EtOH 20/80, 40° C.): 31 to 40 mg/mL (≈ 68.8 to 88.8 mM)
- solubility ([2]; aqueous with cosolvent or surfactant or cyclodextrin, MeOH/Water 67/33/V, 10° C.): < 2 mg/mL
- solubility ([2]; aqueous with cosolvent or surfactant or cyclodextrin, Water/EtOH 50/50, 10° C.): < 11 mg/mL
- solubility ([2]; aqueous with cosolvent or surfactant or cyclodextrin, Water/EtOH 50/50, 25° C.): < 11 mg/mL
- Solubility in dichoromethane ([2]; dichoromethane, even at low temperature (10° C.)): very soluble
- Solubility in dichoromethane/ethanol 50:50 (V/V) at high temperature ([2]; dichoromethane/ethanol 50:50 (V/V), high temperature): relatively good solubility
- Solubility in dichoromethane/ethanol 50:50 (V/V) at low temperature ([2]; dichoromethane/ethanol 50:50 (V/V), low temperature): low solubility
- solubility ([2]; methanol, organic solvent or mixture, MeOH, 10° C.): 8 to 11 mg/mL (≈ 17.8 to 24.4 mM)
- solubility ([2]; methanol, organic solvent or mixture, MeOH, 50° C.): ~36 mg/mL (≈ 79.9 mM)
- solubility ([2]; organic solvent or mixture, CH2Cl2, 25° C.): > 120 mg/mL
- solubility ([2]; organic solvent or mixture, CH2Cl2/EtOH 10/90, 10° C.): 11 to 15 mg/mL (≈ 24.4 to 33.3 mM)
- solubility ([2]; organic solvent or mixture, CH2Cl2/EtOH 10/90, 40° C.): < 25 mg/mL
- solubility ([2]; organic solvent or mixture, CH2Cl2/EtOH 30/70, 10° C.): 25 to 45 mg/mL (≈ 55.5 to 99.9 mM)
- solubility ([2]; organic solvent or mixture, CH2Cl2/EtOH 50/50, 10° C.): > 40 mg/mL
- solubility ([2]; organic solvent or mixture, CH2Cl2/EtOH 70/30, 10° C.): > 40 mg/mL
- solubility ([2]; organic solvent or mixture, CH2Cl2/EtOH 90/10, 10° C.): > 40 mg/mL
- solubility ([2]; organic solvent or mixture, Ethanol, 25° C.): 9 to 14 mg/mL (≈ 20 to 31.1 mM)
- solubility ([2]; organic solvent or mixture, Ethyl acetate, 10° C.): 20 to 40 mg/mL (≈ 44.4 to 88.8 mM)
- solubility ([2]; organic solvent or mixture, Propan-2-ol, 10° C.): < 25 mg/mL
- solubility ([2]; organic solvent or mixture, Propan-2-ol, 50° C.): 25 to 40 mg/mL (≈ 55.5 to 88.8 mM)
- Hysteresis observed with the final mass at 50% RH [3]: No hysteresis; also recorded: slight hysteresis
- Water uptake, water sorption/desorption isotherms [3]: < 0.2 % w/w
- DVS (hygroscopicity) [3]: non hygroscopic; also recorded: non-hygroscopic
- DVS (hygroscopicity) ([3]; listed as Compound I Form I): Non-hygroscopic
- DVS (hygroscopicity) ([3]; listed as FI): Not hygroscopic

SMILES: CC1=C(O)C(=O)C=C2C1=CC=C1[C@@]2(C)CC[C@@]2(C)[C@@H]3C[C@](C)(C(=O)O)CC[C@]3(C)CC[C@]12C [Compound 1 Form II, 3-hydroxy-9β,13α-dimethyl-2-oxo-24,25,26-trinoroleana-1(10),3,5,7-tetraen-29-oic acid]
- XRPD under temperature: impact / new crystalline phase [1]: No impact
- XRPD under temperature: impact / new crystalline phase ([1]; listed as FII): =>No new crystalline
- XRPD under relative humidity: impact / new crystalline phase [1]: No impact
- XRPD under relative humidity: impact / new crystalline phase ([1]; listed as FII): =>No new crystalline
- Physical stability under the conditions tested (temperature and RH) [1]: good stability
- Hysteresis observed with the final mass at 50% RH [3]: No hysteresis
- Mass decrease as the RH was lowered to 0% [3]: ~0.08 % w/w
- Mass increase as the RH was increased to 95% [3]: about 0.13 % w/w
- Water uptake, water sorption/desorption isotherms [3]: < 0.2 % w/w
- DVS (hygroscopicity) [3]: non-hygroscopic
- DVS (hygroscopicity) ([3]; listed as FII): Not hygroscopic

SMILES: CC1=C(O)C(=O)C=C2C1=CC=C1[C@@]2(C)CC[C@@]2(C)[C@@H]3C[C@](C)(C(=O)O)CC[C@]3(C)CC[C@]12C [Compound 1, (2R,4aS,6aS,12bR,14aS,14bR)-10-hydroxy-2,4a,6a,9,12b,14a-hexamethyl-11-oxo-1,2,3,4,4a,5,6,6a,11,12b,13,14,14a,14b-tetradecahydropicene-2-carboxylic acid]
- XRPD under temperature: impact / new crystalline phase ([1]; listed as Free compound): =>No new crystalline phase until
- XRPD under temperature: impact / new crystalline phase ([1]; listed as free Celastrol): no new crystalline phase until 100 °C
- XRPD under temperature: impact / new crystalline phase ([1]; listed as free compound): No impact
- XRPD under relative humidity: impact / new crystalline phase ([1]; listed as Free compound): =>No new crystalline phase from
- XRPD under relative humidity: impact / new crystalline phase ([1]; listed as free Celastrol): no new crystalline phase from 10 to 90% RH
- XRPD under relative humidity: impact / new crystalline phase ([1]; listed as free compound): physically stable under relative humidity; also recorded: No impact
- Physical stability under the conditions tested (temperature and RH) ([1]; listed as free compound): physically stable
- Solubility in water at 37° C. [4]: below 1 g/L
- solubility ([4]; 37 °C): < 1 mg/mL
- Solubility in water at 37° C. ([4]; listed as Free compound): (s < 1 g/L)
- Hysteresis with the final mass at 50% RH [3]: ~0.1 wt-%
- Mass decrease as the RH was lowered to 0% [3]: ~0.1 % w/w
- Mass increase as the RH was increased to 95% [3]: ~0.2 % w/w
- Water uptake, water sorption/desorption isotherms [3]: < 0.2 wt-%
- DVS (hygroscopicity) [3]: non-hygroscopic
- DVS (hygroscopicity) ([3]; listed as Free compound): Non hygroscopic
- DVS (hygroscopicity) ([3]; listed as free Celastrol): Non-hygroscopic
- DVS (hygroscopicity) ([3]; listed as free compound): non hygroscopic

SMILES: CC1=C(O)C(=O)C=C2C1=CC=C1[C@@]2(C)CC[C@@]2(C)[C@@H]3C[C@](C)(C(=O)O)CC[C@]3(C)CC[C@]12C [Compound 2]
- XRPD under temperature: impact / new crystalline phase [1]: No impact of temperature
- XRPD under temperature: impact / new crystalline phase ([1]; listed as Trometamol salt): =>No new crystalline phase until 100 °C
- XRPD under relative humidity: impact / new crystalline phase [1]: formation of a new crystalline pattern
- XRPD under relative humidity: impact / new crystalline phase ([1]; listed as Trometamol salt): less stable physically under relative humidity; also recorded: =>New crystaline phase from 80% RH
- Solubility in water at 37° C. [4]: < 1.5 mg/mL
- Solubility in water at 37° C. ([4]; listed as Trometamol salt): (s < 1.5 g/L)
- Hysteresis with the final mass at 50% RH [3]: ~3 % w/w
- Mass decrease as the RH was lowered to 0% [3]: ~3.8 % w/w
- Mass increase as the RH was increased to 95% [3]: 11 % w/w
- Water uptake, water sorption/desorption isotherms [3]: 2 ˜15 % w/w
- DVS (hygroscopicity) [3]: hygropscopic
- DVS (hygroscopicity) ([3]; listed as Trometamol salt): Hygroscopic

SMILES: NCCCC[C@H](N)C(=O)O [L-Lysine]
- pKa (A) ([5]; acid function): 2.16
- pKa (B) [5]: 9.18

SMILES: NC(CO)(CO)CO [trometamol, tris(hydroxymethyl)aminomethane]
- pKa (B) [5]: 8.2
